From ChEMBL document CHEMBL1201862, “PubChem BioAssay data set” (2004)
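Five concentrations, 48 hours, 96-well plates. GI50 marks 50% less growth.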 Active and inactive are the calls of the source. Cut-off read from the data, not from the text of the source: active = GI50 up to about 1.1 µM and inactive = higher.

How the values were obtained:
Assay in all cases: NCI-60 cell line screen, 48 h
A498 = tested on: A498
786-0 = tested on: 786-0
EKVX = tested on: EKVX
MOLT-4 = tested on: MOLT-4
CCRF-CEM = tested on: CCRF-CEM
DLD-1 = tested on: DLD-1
U-251 = tested on: U-251
LOX IMVI = tested on: LOX IMVI
OVCAR-5 = tested on: OVCAR-5
Malme-3M = tested on: Malme-3M
UACC-62 = tested on: UACC-62
CAKI-1 = tested on: CAKI-1
SK-MEL-2 = tested on: SK-MEL-2
SF-268 = tested on: SF-268
HOP-62 = tested on: HOP-62
SNB-19 = tested on: SNB-19
HCT-116 = tested on: HCT-116

Measured: GI50

Cc1ccc(/C=C/C(=O)c2sc(-n3nc(-c4ccccc4)cc3-c3ccccc3)nc2C)cc1
inactive: A498 > 100 µM | 786-0 > 100 µM | EKVX 34.8 µM | MOLT-4 8.39 µM | CCRF-CEM > 100 µM | DLD-1 > 100 µM | U-251 > 100 µM | LOX IMVI > 100 µM | OVCAR-5 > 100 µM | Malme-3M > 100 µM | UACC-62 > 100 µM | CAKI-1 12.4 µM | SK-MEL-2 > 100 µM | SF-268 > 100 µM | HOP-62 > 100 µM

COC1=CC(=O)NCCN1
inactive: A498 > 100 µM | 786-0 > 100 µM | EKVX > 100 µM | MOLT-4 > 100 µM | CCRF-CEM 51.4 µM | DLD-1 > 100 µM | U-251 > 100 µM | LOX IMVI 23.5 µM | OVCAR-5 > 100 µM | SNB-19 > 100 µM | Malme-3M > 100 µM | UACC-62 > 100 µM | HCT-116 74.3 µM | CAKI-1 > 100 µM | SK-MEL-2 > 100 µM | SF-268 > 100 µM | HOP-62 > 100 µM

O=C1C(=O)N(c2ccc(Cl)cc2Cl)C(=O)C(=O)C1c1nc2ccccc2s1
inactive: A498 > 100 µM | 786-0 > 100 µM | EKVX > 79.8 µM | MOLT-4 23.3 µM | CCRF-CEM 25 µM | DLD-1 > 51.8 µM | U-251 > 43.9 µM | LOX IMVI > 100 µM | OVCAR-5 > 100 µM | SNB-19 > 100 µM | Malme-3M > 100 µM | UACC-62 78.3 µM | HCT-116 > 71.6 µM | CAKI-1 64.1 µM | SK-MEL-2 > 100 µM | SF-268 > 56.4 µM | HOP-62 > 100 µM

Nc1nc(=O)n(C2CC(O)C(O)C(CO)O2)cc1F (stereo not given)
inactive: A498 > 100 µM | 786-0 > 100 µM | EKVX > 100 µM | MOLT-4 > 100 µM | CCRF-CEM > 100 µM | DLD-1 > 100 µM | U-251 > 100 µM | LOX IMVI > 100 µM | OVCAR-5 > 100 µM | SNB-19 > 100 µM | Malme-3M > 100 µM | UACC-62 > 100 µM | HCT-116 > 100 µM | SK-MEL-2 > 100 µM | SF-268 > 100 µM | HOP-62 > 100 µM

COc1cc(/C=C2/C(=O)N(C(=O)OC(C)C)C(Cc3cc(OC)c(OC)c(C)c3OC)C(=O)N2Cc2ccccc2)c(OC)c(C)c1OC (stereo not given)
inactive: A498 73.1 µM | 786-0 > 100 µM | EKVX > 100 µM | MOLT-4 3.33 µM | CCRF-CEM 13.1 µM | DLD-1 > 100 µM | U-251 86.7 µM | LOX IMVI > 100 µM | OVCAR-5 > 100 µM | Malme-3M 22.2 µM | UACC-62 > 100 µM | HCT-116 27.5 µM | CAKI-1 > 100 µM | SK-MEL-2 27.1 µM | SF-268 > 100 µM | HOP-62 > 100 µM

Cc1c(C)c2ccc3oc4ccccc4c3c2oc1=O
inactive: A498 > 100 µM | 786-0 > 100 µM | EKVX > 100 µM | MOLT-4 > 100 µM | CCRF-CEM > 100 µM | DLD-1 > 100 µM | U-251 > 100 µM | LOX IMVI > 100 µM | OVCAR-5 > 100 µM | SNB-19 > 100 µM | Malme-3M > 100 µM | UACC-62 > 100 µM | HCT-116 96.4 µM | CAKI-1 > 100 µM | SF-268 > 100 µM | HOP-62 > 100 µM

COC(=O)c1ncc2c(=O)[nH]c3ccccc3c2c1C(=O)OC
inactive: A498 > 100 µM | 786-0 > 100 µM | EKVX > 100 µM | MOLT-4 > 100 µM | CCRF-CEM > 100 µM | DLD-1 > 100 µM | LOX IMVI > 100 µM | OVCAR-5 > 100 µM | SNB-19 > 100 µM | Malme-3M > 100 µM | UACC-62 > 100 µM | HCT-116 > 100 µM | CAKI-1 > 100 µM | SK-MEL-2 > 100 µM | SF-268 > 100 µM | HOP-62 > 100 µM

CCOC(=O)NC(=O)c1cn(CCCOC(=O)CCCCCCCCC(=O)OCCCn2cc(C(=O)NC(=O)OCC)c(=O)[nH]c2=O)c(=O)[nH]c1=O
inactive: A498 21.7 µM | 786-0 15.8 µM | EKVX 38.1 µM | MOLT-4 19 µM | CCRF-CEM 3.47 µM | DLD-1 17.8 µM | U-251 16.7 µM | LOX IMVI 16.4 µM | SNB-19 22.3 µM | UACC-62 17.5 µM | HCT-116 24.2 µM | CAKI-1 7.28 µM | HOP-62 26 µM

CC1(C)OC(=O)[C@@](C)([C@H](O)c2ccccc2)O1
inactive: A498 > 100 µM | 786-0 > 100 µM | EKVX > 100 µM | MOLT-4 45.1 µM | CCRF-CEM > 100 µM | DLD-1 > 100 µM | U-251 > 100 µM | SNB-19 > 100 µM | Malme-3M 28.7 µM | UACC-62 78.2 µM | HCT-116 93.8 µM | CAKI-1 46.3 µM | SK-MEL-2 > 100 µM | SF-268 > 100 µM | HOP-62 > 100 µM

O=c1c([Se]c2coc3ccccc3c2=O)coc2ccccc12
inactive: A498 19.1 µM | 786-0 18.5 µM | EKVX 18.7 µM | MOLT-4 9.18 µM | CCRF-CEM 18.1 µM | DLD-1 18.2 µM | U-251 7.13 µM | LOX IMVI 16 µM | OVCAR-5 16.2 µM | SNB-19 14 µM | Malme-3M 17.8 µM | UACC-62 17.1 µM | HCT-116 3.8 µM | CAKI-1 20 µM | SK-MEL-2 18.2 µM | SF-268 19.5 µM | HOP-62 4.89 µM

CCOP1(=O)C=C(C)C(=C(Cl)Cl)C(C)=C1 (stereo not given)
inactive: A498 19.2 µM | 786-0 23.7 µM | EKVX 18.9 µM | MOLT-4 5.64 µM | CCRF-CEM 10.2 µM | DLD-1 24 µM | U-251 13.9 µM | LOX IMVI 4.36 µM | SNB-19 20.1 µM | Malme-3M 17.1 µM | UACC-62 6.46 µM | HCT-116 2.51 µM | CAKI-1 11.6 µM | SK-MEL-2 3.72 µM | SF-268 9.57 µM | HOP-62 15.4 µM

CC(C)CCCC(C)[C@H]1CCC2[C@@H]3CCC4Nc5c(cnn5-c5ccccc5)C[C@]4(C)C3CC[C@@]21C (stereo not given in full)
inactive: A498 89.5 µM | 786-0 15.7 µM | EKVX 7.52 µM | MOLT-4 3.32 µM | CCRF-CEM 7.45 µM | DLD-1 > 100 µM | U-251 12.5 µM | OVCAR-5 50.1 µM | SNB-19 18.2 µM | Malme-3M 28.7 µM | UACC-62 8.05 µM | HCT-116 51.6 µM | CAKI-1 5.11 µM | SK-MEL-2 23.4 µM | SF-268 85.3 µM | HOP-62 14.3 µM
